Reference: patent US6939845B2, “Fragrance precursors” (Givaudan SA, priority 2000, dated 2005)

Assay: Stability tests in aqueous buffer solutions
Format: physicochemical
Conditions: for Stability at pH 2.5: aqueous buffer pH 2.5, 24 h at 37° C.; for Stability at pH 7: aqueous buffer pH 7, 24 h at 37° C.; for Stability at pH 9.5: aqueous buffer pH 9.5, 24 h at 37° C.

| SMILES | Stability at pH 2.5 | Stability at pH 7 | Stability at pH 9.5 |
| --- | --- | --- | --- |
| Cc1cc2c(cc1C(=O)COC1CCC3(CCC(C)CC3)O1)C(C)(C)CC(C)C2(C)C (stereo not drawn) [compound 1, 1-(3,5,5,6,8,8-Hexamethyl-5,6,7,8-tetrahydro-naphtalen-2-yl)-2-(8-methyl-1-oxa-spiro[4.5]dec-2-yloxy)-ethanone] | stable | stable | stable |
| CCCCCCCC1CCC(OCC(=O)c2ccc3ccccc3c2)O1 (stereo not drawn) [compound 3, 2-(5-Heptyl-tetrahydro-furan-2-yloxy)-1-naphtalen-2-yl-ethanone] | unstable | stable | stable |
| C/C=C/CCC1CCCC(OCC(=O)c2ccc3ccccc3c2)O1 (stereo not drawn) [compound 6, 1-(Naphtalen-2-yl)-2-(6-pent-3-enyl-tetrahydro-pyran-2-yloxy)-ethanone] | unstable | stable | stable |
| C/C=C/CCC1CCCC(OCC(=O)c2cc3c(cc2C)C(C)(C)C(C)CC3(C)C)O1 (stereo not drawn) [compound 5, 1-(3,5,5,6,8,8-Hexamethyl-5,6,7,8-tetrahydro-naphthalen-2-yl)-2-(6-pent-3-enyl-tetrahydro-pyran-2-yloxy)-ethanone] | stable | stable | stable |
| CCCCCCCC1CCC(OCC(=O)c2ccc(OC)cc2)O1 (stereo not drawn) [compound 4, 2-(5-Heptyl-tetrahydro-furan-2-yloxy)-1-(4-methoxy-phenyl)-ethanone] | unstable | stable | stable |
| CCCCCCCC1CCC(OCC(=O)c2cc3c(cc2C)C(C)(C)C(C)CC3(C)C)O1 (stereo not drawn) [compound 2, 2-(5-Heptyl-tetrahydro-furan-2-yloxy)-1-(3,5,5,6,8,8-hexamethyl-5,6,7,8-tetrahydro-naphtalen-2-yl)-ethanone] | stable | stable | stable |
